Assays:
[1] = system: OVCAR4; assay: Cytotoxicity on panel of cell lines, TMRE viability (Example II.2); format: cell-based; conditions: Homo sapiens, OVCAR-4, 24 hours, mean, control = 1, read-out: cell viability relative to control, OVCAR4 (ovarian cancer)
Description: (§1) The leukemia and lymphoma-derived cell lines [MEC-1 cell line (derived from chronic lymphocytic leukemia—CLL), Nalm-16 (acute lymphocytic leukemia—ALL), K562 (chronic myeloid leukemia—CML), HL-60 (acute myeloid leukemia—AML), Maver-1 and Mino (mantle cell lymphoma—MCL), BL-41 (Burkitt lymphoma—BL), WSU-NHL (follicular lymphoma—FL), SUDHL (diffuse large B-cell lymphoma—DLBCL)], primary CLL cells and nonmalignant control primary cells were cultured in suspension in flasks under the following conditions: RPMI 1640 medium (Hyclone) supplemented with 10% fetal bovine serum (FBS, Gibco) and 1% penicillin/streptomycin (Life Technologies), 37° C., 5% CO2 and 95% relative humidity, with optimal culture cell density 5×10^6 cells/mL in case of primary cells and 0.5-1×10^6 cells/mL in case of cell lines. The adherent cell lines [A375 (derived from malignant melanoma), MDA-MB-231 and MCF-7 (breast cancer), MIA-PA-CA and PANC1 (pancreatic cancer), PC3 (prostate cancer), OVCAR4 (ovarian cancer) and HEPG2 (hepatocellular carcinoma)] were cultured on plates under the same conditions using RPMI1640 or DMEM medium (Gibco) according to instructions provided by the distributor (DSMZ/ATCC).
(§2) The tested cell lines were incubated with inhibitors at 30 μM concentration or corresponding amount of solvent (DMSO, Sigma Aldrich) in standard culture conditions, seeded as 10^5 cells/500 μl per well in a 24-well plate. Experiments were performed in technical duplicates and 2-3 biological repetitions per cell line. Viability of cells was assessed after 24 hours.
(§3) Relative values are presented as a mean value, showing ratio to the effect of control. Relative value <1=lower viability than control condition.

[2] = system: Maver1; assay: as above; format: cell-based; conditions: Homo sapiens, 24 hours, mean, control = 1, read-out: cell viability relative to control, Maver1 (MCL)
Description: as §1, §2, §3

[3] = system: HEPG2; assay: as above; format: cell-based; conditions: Homo sapiens, 24 hours, mean, control = 1, read-out: cell viability relative to control, HEPG2 (hepatocellular carcinoma)
Description: as §1, §2, §3

[4] = Pharmacokinetic study, oral dosing, plasma concentration by LC-MS/MS (Example II.5); format: in vivo; conditions: mouse, male Balb/c mice, oral 20 mg/kg as dihydrochloride in saline, free base quantified, below LLOQ designated zero; for concentration at 15 min: read-out: conc. at 15 min; for concentration at 30 min: read-out: conc. at 30 min; for concentration at 60 min: read-out: conc. at 60 min; for concentration at 120 min: read-out: conc. at 120 min; for concentration at 240 min: read-out: conc. at 240 min; for concentration at 600 min: read-out: conc. at 600 min
Description: Male Balb/c mice (10-12 weeks old, body weight 24.1 to 30.8 g and average body weight across all groups 26.8 g, SD=1.7 g) were used in this study. The animals were randomly assigned to the treatment groups before the pharmacokinetic study; all animals were fasted for 4 h before dosing. The time points indicated in Table 4 were set for this pharmacokinetic study. Each of the time point treatment group included 4 animals. There was also control group of 2 animals. The compounds were dosed orally as the corresponding dihydrochlorides dissolved in physiological saline (c=3-4 mg/mL) at the dose of 20 mg/kg.
Mice were injected IP with 2,2,2-tribromoethanol at the dose of 150 mg/kg prior to drawing the blood. Blood collection was performed from the orbital sinus in microtainers containing K2EDTA. Animals were sacrificed by cervical dislocation after the blood samples collection. All samples were immediately processed, flash-frozen and stored at −70° C. until subsequent analysis.
Plasma samples (50 μL) were mixed with 200 μL of internal standard solution. After mixing by pipetting and centrifuging for 4 min at 6,000 rpm, 0.5 μL of each supernatant was injected into LC-MS/MS system.
The analyzed compound (as a dihydrochloride salt) was dissolved in DMSO, and the resulting solution with concentration of 2 mg/mL was used for calibration standards preparation (stock solution). A series of calibration standards was prepared by consecutively dilution of stock compound solution with blank mouse plasma to a final concentration of 40 000, 20 000, 10 000, 5 000, 2 500, 1000, 500, 250, 100, 50, and 20 ng/mL. Standard plasma samples (50 μL) were mixed with 200 μL of internal standard. After mixing by pipetting and centrifuging for 4 min at 6,000 rpm, 0.5 μL of each supernatant was injected into LC-MS/MS system. Signal corresponding to the free base was analyzed and quantified (Table 4).
The regression analysis of the analyzed compound was performed by plotting the peak area ratio (y-axis) against the compound concentration in calibration standards (x-axis, ng/mL).
The concentrations of the analyzed compound in plasma samples below the lower limit of quantitation (LLOQ—5 ng/mL to 20 ng/mL) were designated as zero.

[5] = system: primary CLL cells; assay: Cytotoxicity, TMRE flow cytometry viability, primary CLL cells (Example II.1); format: cell-based; conditions: Homo sapiens, CLL cell, 6 hours, TMRE positive cells normalized to control, ratio to PF670462, <1 = higher cytotoxicity than PF670462, read-out: Viability of cells, Compound of formula I (100 μM), relative to PF670462 (100 μM), CLL primary cells
[6] = system: Maver-1 cells (mantle cell lymphoma); assay: Cytotoxicity, TMRE flow cytometry viability, Maver-1 cells (Example II.1); format: cell-based; conditions: Homo sapiens, Maver1, 24 hours, TMRE positive cells normalized to control, ratio to PF670462, <1 = higher cytotoxicity than PF670462, read-out: Viability of cells, Compound of formula I (100 μM), relative to PF670462 (100 μM), Maver-1 cells (mantle cell lymphoma)

Structure (SMILES)	concentration at 15 min [4]	concentration at 30 min [4]	concentration at 60 min [4]	concentration at 120 min [4]	concentration at 240 min [4]	concentration at 600 min [4]	viability at 30 µM [1]	viability at 30 µM [2]	viability at 30 µM [3]	viability at 100 µM [5]	viability at 100 µM [6]
Fc1ccc(-c2ncn(CC3CCCO3)c2-c2ccnc3[nH]ccc23)cc1 (stereo not drawn) [Preparative Example 27, 4-(4-(4-fluorophenyl)-1-((tetrahydrofuran-2-yl)methyl)-1H-imidazol-5-yl)-1H-pyrrolo[2,3-b]pyridine]	–	–	–	–	–	–	84%	78%	85%	–	–
Fc1ccc(-c2ncn(Cc3cccnc3)c2-c2ccnc3[nH]ccc23)cc1 [Preparative Example 82, 4-(4-(4-fluorophenyl)-1-(pyridin-3-ylmethyl)-1H-imidazol-5-yl)-1H-pyrrolo[2,3-b]pyridine]	1370 nM	260 nM	90 nM	40 nM	20 nM	0 nM	–	–	–	80%	–
Cn1cnc(Cn2cnc(-c3ccc(F)cc3)c2-c2ccnc3[nH]ccc23)c1 [Preparative Example 92, 4-(4-(4-fluorophenyl)-1-((1-methyl-1H-imidazol-4-yl)methyl)-1H-imidazol-5-yl)-1H-pyrrolo[2,3-b]pyridine]	9520 nM	6630 nM	4520 nM	790 nM	50 nM	0 nM	–	–	–	–	81%
Cn1ccc(Cn2cnc(-c3ccc(F)cc3)c2-c2ccnc3[nH]ccc23)n1 [Preparative Example 94]	440 nM	210 nM	180 nM	70 nM	0 nM	0 nM	–	–	–	–	81%
CN1CCC(Cn2cnc(-c3ccc(F)cc3)c2-c2ccnc3[nH]ccc23)CC1 [Preparative Example 102, 4-(4-(4-fluorophenyl)-1-((1-methylpiperidin-4-yl)methyl)-1H-imidazol-5-yl)-1H-pyrrolo[2,3-b]pyridine]	620 nM	720 nM	400 nM	530 nM	480 nM	0 nM	–	–	–	68%	69%
Fc1ccc(-c2ncn(Cc3cocn3)c2-c2ccnc3[nH]ccc23)cc1 [Preparative Example 103, 4-((4-(4-fluorophenyl)-5-(1H-pyrrolo[2,3-b]pyridin-4-yl)-1H-imidazol-1-yl)methyl)oxazole]	2170 nM	580 nM	130 nM	80 nM	40 nM	0 nM	–	–	–	–	–
Cc1nnc(Cn2cnc(-c3ccc(F)cc3)c2-c2ccnc3[nH]ccc23)[nH]1 [Preparative Example 107, 4-(4-(4-fluorophenyl)-1-((5-methyl-4H-1,2,4-triazol-3-yl)methyl)-1H-imidazol-5-yl)-1H-pyrrolo[2,3-b]pyridine]	4780 nM	2420 nM	2300 nM	430 nM	240 nM	0 nM	–	–	–	–	–
Cn1cc(Cn2cnc(-c3ccc(F)cc3)c2-c2ccnc3[nH]ccc23)nn1 [Preparative Example 113, 4-(4-(4-fluorophenyl)-1-((1-methyl-1H-1,2,3-triazol-4-yl)methyl)-1H-imidazol-5-yl)-1H-pyrrolo[2,3-b]pyridine]	8010 nM	3530 nM	1030 nM	1120 nM	250 nM	0 nM	–	–	–	–	–

Second part, led by results:

concentration at 15 min [4]	concentration at 30 min [4]	concentration at 60 min [4]	concentration at 120 min [4]	concentration at 240 min [4]	concentration at 600 min [4]	Structure (SMILES)	viability at 30 µM [1]	viability at 30 µM [2]	viability at 30 µM [3]	viability at 100 µM [5]	viability at 100 µM [6]
2730 nM	730 nM	300 nM	160 nM	40 nM	0 nM	Cn1ccnc1Cn1cnc(-c2ccc(F)cc2)c1-c1ccnc2[nH]ccc12 [Preparative Example 122, 4-(4-(4-fluorophenyl)-1-((1-methyl-1H-imidazol-2-yl)methyl)-1H-imidazol-5-yl)-1H-pyrrolo[2,3-b]pyridine]	–	–	–	–	–
1350 nM	920 nM	520 nM	130 nM	0 nM	0 nM	CN(C)[C@H]1C[C@@H](n2cnc(-c3ccc(F)cc3)c2-c2ccnc3[nH]ccc23)C1 [Preparative Example 123, (1R,3s)-3-(4-(4-fluorophenyl)-5-(1H-pyrrolo[2,3-b]pyridin-4-yl)-1H-imidazol-1-yl)-N,N-dimethylcyclobutan-1-amine]	–	–	–	58%	78%
2380 nM	1830 nM	840 nM	760 nM	380 nM	0 nM	CN1CCC(F)(Cn2cnc(-c3ccc(F)cc3)c2-c2ccnc3[nH]ccc23)CC1 [Preparative Example 126, 4-(1-((4-fluoro-1-methylpiperidin-4-yl)methyl)-4-(4-fluorophenyl)-1H-imidazol-5-yl)-1H-pyrrolo[2,3-b]pyridine]	–	–	–	64%	71%
18900 nM	7240 nM	3980 nM	770 nM	410 nM	0 nM	Cn1nnc(Cn2cnc(-c3ccc(F)cc3)c2-c2ccnc3[nH]ccc23)n1 [Preparative Example 151]	–	–	–	–	–
13900 nM	8760 nM	7860 nM	2450 nM	520 nM	0 nM	Fc1ccc(-c2ncn(Cc3nc[nH]n3)c2-c2ccnc3[nH]ccc23)cc1 [Preparative Example 154, 4-(1-((1H-1,2,4-triazol-3-yl)methyl)-4-(4-fluorophenyl)-1H-imidazol-5-yl)-1H-pyrrolo[2,3-b]pyridine]	–	–	–	–	–

Source: US11498920B2, “4-(1H-imidazol-5-yl)-1H-pyrrolo[2, 3-b] pyridines for use in the treatment of leukaemias, lymphomas and solid tumors” (MASARYKOVA UNIVERZITA, priority 2018, dated 2022)
